# In patent US10370378B2, “Treatment of sleep disorders” (Evotec International GmbH, priority 2007, dated 2019):
# Marks after values point to notes of the source that are not given here.
# What was measured:
# [1] = tested on: healthy volunteers subjected to road traffic noise; assay: Example 1: placebo controlled cross-over study, road noise model; type: in vivo, human
# Experimental: A placebo controlled, randomized, double-blind, cross-over study of the effects of the compound of formula (II) was conducted using a road noise model using 12 healthy volunteers. Specifically, the volunteers were subjected to road traffic noise to imitate the effects of insomnia, and the medication was orally administered 5 minutes before the 11 pm bed time in 1.0 mg, 1.5 mg, 2 mg and 2.5 mg doses in the form of a hard gelatine capsule containing the powdered compound of formula (II) in free base form. Measurements were then taken at 8, 10 and 12 hours after dosing.
# [2] = tested on: primary insomnia in adult patients; assay: Example 3: placebo-controlled crossover study in primary insomnia, adult patients younger than 65 (PSG, patient reports, DSST, safety); type: in vivo, human; conditions: for Number of Patients with Any Event / Number of Patients with Headache / Number of Patients with Somnolence: number (percent)
# Experimental: A randomized, multicenter, double-blind, placebo-controlled crossover study was conducted to assess the efficacy of the 1.5 mg and 2.5 mg doses of the compound of formula (II) in the treatment of primary insomnia in adult patients. Specifically, one of the objectives of the study was to asses the efficacy of 1.5 mg and 2.5 mg doses on PSG and patient-reported measures of sleep. Also, the study was aimed at assessing the safety of 1.5 mg and 2.5 mg doses.
# The study in this Example was performed for two consecutive nights with a 5-12 day washout between each period. The dosing was conducted 30 minutes before lights were turned out for the night via oral administration of a hard gelatine capsule containing the compound of formula (II) (free base) in powder form. PSG was taken for 8 hours from “lights out” on nights 1 and 2 of each treatment period. Centralized scoring of PSG was used. Testing for residual effects using the Digit Symbol Substitution Test (DSST) was performed at least 30 minutes after wake time (9 hours post dose).
# The study was conducted using 67 subjects younger than 65 years of age (21 males, 46 females; mean age 45.1 yrs, range 23-64 yrs) with a documented diagnosis of primary insomnia (DSM-IV criteria). These subjects' typical bed time was between 9 pm and 1 am with at least 7 hours in bed. These subjects reported sleep latency of at least 45 minutes and TST of not more than 6.5 hours in a sleep diary for at least 3 of 7 nights.
# Mean WASO of the patients was at least 40 minutes and mean TST was 240-420 minutes.
# [3] = 1.5, 2.0 & 2.5 mg oral, objective
# [4] = all 4 doses (1.0, 1.5, 2, 2.5 mg)
# [5] = all 4 doses, objective residual effects
structure (smiles),measurement,setting,value
"CN(C)Cc1nc(-c2ncn3c2CN(C)C(=O)c2c(Cl)cccc2-3)no1 [compound of formula (II), 7-chloro-3-(5-dimethylaminomethyl-[1,2,4]oxadiazol-3-yl)-5-methyl-4,5-dihydro-imidazo[1,5-a][1,4]benzodiazepine-6-one]",Subjective assessment (LARS): Coordination,[1]; 2.5 mg,No impairment
same,Subjective assessment (LARS): Mood,[1]; 2.5 mg,No impairment
same,Subjective assessment (LARS): Sedation,[1]; 2.5 mg,No impairment
same,"WASO, 2nd half (hrs 5-8)",[1]; [3],Significantly reduced
same,"WASO, full night (hrs 0-8)",[1]; [3],Significantly reduced
same,Sleep Efficiency Index,"[1]; 2.0 & 2.5 mg oral, objective",Significantly improved
same,TST,"[1]; 2.0 & 2.5 mg oral, objective",Significantly improved
same,Performance on any of the cognitive or psychomotor tests,"[1]; 8 to 12 hours after dose, data corrected for multiple comparisons",no impairment
same,Choice Reaction Time - Motor Component,[1]; all 4 doses,No effect (all 4 doses)
same,Critical Flicker Fusion Test,[1]; all 4 doses,No effect (all 4 doses)
same,Word Recall - delayed (WRd),[1]; all 4 doses,No effect (all 4 doses)
same,SWS (% and duration),[1]; [4],Significantly increased
same,Stage IV Sleep (% and duration),[1]; [4],Significantly increased
same,Leeds Sleep Evaluation Questionnaire: Getting to sleep,"[1]; all 4 doses, model considered nondiscriminant for sleep onset",(No effect to all 4 doses)*
same,Rapid Visual Information Processing,[1]; [5],No effect (all 4 doses)
same,Sustained Attention to Response (SART),[1]; [5],No effect (all 4 doses)
same,Leeds Sleep Evaluation Questionnaire: Early morning behaviour (clumsiness & tiredness),"[1]; all 4 doses, subjective",No effect (all 4 doses)
same,Leeds Sleep Evaluation Questionnaire: Ease of awakening,"[1]; all 4 doses, subjective",No effect (all 4 doses)
same,Sternberg Memory Task (STM),"[1]; at 8 or 12 h, all 4 doses",No effect at 8 or 12 h (all 4
same,Continuous Tracking Task - reaction time,"[1]; at 10 or 12 h, all 4 doses",No effect at 10 or 12 h (all
same,Continuous Tracking Task - deviation,"[1]; at 8 h, all 4 doses",No effect at 8 h (all 4
same,Number of Patients with Any Event,[2]; 1.5 mg (n = 71),13 (18.3%)
same,Number of Patients with Headache,[2]; 1.5 mg (n = 71),3 (4.2%)
same,Number of Patients with Somnolence,[2]; 1.5 mg (n = 71),2 (2.8%)
same,safety and tolerability,[2]; 1.5 mg and 2.5 mg doses,safe and well-tolerated
same,patient-reported residual sedation effects compared with placebo,[2]; 1.5 mg or 2.5 mg,no patient-reported residual sedation effects
same,Number of Patients with Any Event,[2]; 2.5 mg (n = 71),18 (25.4%)
same,Number of Patients with Headache,[2]; 2.5 mg (n = 71),6 (8.5%)
same,Number of Patients with Somnolence,[2]; 2.5 mg (n = 71),4 (5.6%)
same,total time awake during each hour after dosing,"[2]; 2.5 mg, each hour except hour 7 (p 0.0577)",statistically significant reduction
same,REM sleep (sleep architecture),[2]; 1.5 and 2.5 mg,only a small effect
same,slow wave sleep (sleep architecture),[2]; 1.5 and 2.5 mg,no impairment
same,patient reported sleep quality,[2]; 1.5 and 2.5 mg doses,marked improvement
same,DSST scores compared with placebo,[2]; 9 hours after dose,only slightly lower
